# Measured values taken from patent publication US20090259167A1, “METHODS AND COMPOSITIONS FOR DOSE-DEPENDENT PHOTODYNAMIC THERAPY OF DISORDERS” (THE GENERAL HOSPITAL CORPORATION, priority 2008, published 2009).
# “Also recorded” adds a separate entry of the source.
# Key:
# skin = assay: Clinical examination of inflammatory response to ALA-PDT (635 nm red light); assay type: in vivo, Yorkshire swine
# Excerpt: (§1) Three female domestic Yorkshire swine weighing 30 to 50 kg were used in the study, which was approved by the MGH Institutional Subcommittee for Research Animal Care. Porcine and human skin have similar histology and physiology, with notable differences. Pigs have smaller sebaceous glands and a thicker dermis. However their thick stratum corneum, lack of fur and metabolism of topical or injected ALA are similar to humans (Meyer 1996), (de Blois, Thissen et al. 2001).
# (§2) 5-Aminolevulinic acid hydrochloride from Biosynth International Inc. (Naperville, Ill., USA) was diluted in normal saline (0.9% Sodium Chloride, Hospira, Inc., Illinois, USA) into different concentrations. ALA solutions were titrated in halves from 1.000% to 0.0005%. Osmolarity was not corrected. ALA solution pH varied with concentration from acidic to neutral (1.000%≈pH 1; 0.500%≈pH 3; 0.250 to 0.008%≈pH 5; 0.004 to 0.0005%≈pH 7). Normal saline was used as a control (pH=7). […] In this study, ALA solutions were not buffered because buffering can induce a delay in PpIX formation (Bech et al. 1997). Unbuffered solutions were prepared immediately before intradermal injection. A volume of 0.05-cc/cm^2 skin area was injected at a depth of 2 to 4 mm, using a special 4 mm-long 30 gauge needle (TSK STEiJECT, Toshigi-ken, Japan). The beveled outlet of this needle covers the distal 1 mm near its tip.
# (§3) Each animal's flanks were cleansed, clipped of hair, cleansed and rinsed again, dried with a towel, mapped and divided into 4 cm×7 cm rectangular areas for the test spots. Each test area received an injection of a given ALA concentration, with appropriate control sites, which received either no treatments, ALA alone, or light exposure alone. After the ALA injections, the skin surface was wiped clean again. Three hours after ALA administration, each test area was used for repeated measurements of (1) digital fluorescence photography to document the gross distribution of porphyrin synthesis; and (2) 8-mm skin biopsies obtained from at least 2 sites for each condition prior to light exposure, for evaluation of porphyrin distribution by fluorescence microscopy. After the 3-hour-incubation skin biopsies, red light exposures were performed using a 635 nm LED array (Omnilux, Photo Therapeutics, Inc, Cheshire, UK), delivered at 100 mW/cm^2 irradiance. Biopsies were taken from the control sites at the same times as from test sites, to control for the unlikely possibility that the small amount of ALA injected would cause a systemic level sufficient to stimulate remote synthesis of porphyrins. Measurements and biopsies were repeated after 24 hours, prior to euthanasia.
# Clinical examination and grading of cutaneous responses were performed before, during and 1 hour after the end of the last red light exposure. This is sufficient time for an acute inflammatory response to develop. The following day, before euthanasia, final clinical evaluation was performed. Inflammatory response was graded from 0 to 3 for each site, where 0 represents no reaction; 1, mild (any redness or edema); 2, moderate (prominent redness and/or edema) and 3, severe reaction (signs of necrosis, blistering, purpura).
# [1] = system: porphyrin accumulation in cutaneous structures; assay: Fluorescence microscopy of fresh-frozen skin biopsies for porphyrin (PpIX) distribution; assay type: in vivo, Yorkshire swine
# Excerpt: as §1, §2, §3
# (§4) From each experimental skin area, a series 8 mm punch biopsies were taken and immediately split vertically in half with a razor blade. For each biopsy, half was prepared as a fresh-frozen specimen to localize the PpIX accumulation by fluorescence microscopy. The other half was processed for routine hematoxylin-eosin (H&E) staining. At baseline (B0), after 3 hours of incubation (B1), and after 24 hours (B2) a biopsy was performed in each area. Biopsies for fluorescence microscopy were also taken from sites receiving light exposure, just after the light was administered. Frozen sections were cut into 15 μm thick samples and observed using fluorescence microscopy Zeiss Axiophot, Carls Zeiss MicroImaging GmbH, Gottinger, Germany at 10× magnification; samples were also imaged by confocal microscopy (True Confocal Scanner—Leica TCSNT, Leica Mikroscopie und Systeme GmbH, Heidelberg, Germany) at 40× magnification. Routine H&E histology was performed to analyze PDT effect within the skin structures. Biopsy sites were separated from each other by at least 1 cm. […]
# [2] = pH and stability of ALA solutions; assay type: physicochemical; details: unbuffered
# Method: as §2
# [3] = depending on the pH and the concentration of the solution; cited from earlier work
# [4] = system: porphyrin accumulation in skin; assay: Digital fluorescence gross photography of porphyrin accumulation after intradermal ALA; assay type: in vivo, Yorkshire swine
# Excerpt: as §1, §2
# For each concentration, 12 repetitions were performed for statistical validation. One centimeter separated each site of application from others at the same concentration. After ALA administration, the skin was occluded with plastic sheeting (Saran wrap) and covered with aluminum foil, to avoid light exposure during a 3-hour period for ALA metabolism.
# as §3
# Fluorescence photography was performed using a 420 nm bandwidth excitation filter, and >600 nm long pass emission filter mounted on a digital camera (Nikon D70, Nikon Corporation, Tokyo, Japan) with fixed-focus and fixed-field with 10 cm field of view. A fluorescent tape (Small Flags—Pink, Redi-Tag Corporation, Cypress, Calif., USA) was attached to the fixed-field area to compare the fluorescence produced from the skin. Fluorescence photography was performed at baseline, after 3 hours of incubation, immediately after red light exposure, and 24 hours after the application of the drug for each ALA application and control test sites.
# Every gross fluorescent photograph was analyzed using the WCIF—Image J 1.37c software—Wayne Rasband National Institutes of Health, USA. In this software, pixel analysis is transformed into numeric values. […]
# skin structures = assay: Histopathology (H&E) of skin structures 24 hours after ALA-PDT; assay type: in vivo, Yorkshire swine
# Excerpt: as §1, §2, §3, §4
# [5] = 0.5% injected ALA-PDT, 24 hours
compound,measurement,setting,value
"Cl.NCC(=O)CCC(=O)O [ALA, 5-Aminolevulinic acid hydrochloride]",lowest injected ALA concentration with clinical reaction (mild erythema),skin; 24 hours after PDT,0.016%
same,Nikolski sign,skin; all sites,negative
same,clinical response after light exposure,skin; injected ALA 0.0005% (lowest concentration),no significant clinical residuum
same,clinical response after PDT,"skin; injected ALA 0.25%-1.00%, necrosis generally after 24 hours",extensive purpura with skin necrosis
same,gross skin reaction,"skin; injected ALA and light exposure, after 24 hours",much more uniform gross skin reaction
same,clinical response during red light irradiation,skin; injected ALA from 0.016% to 1.0%,intense vasospasm
same,clinical response after light exposure,"skin; injected ALA less or equal to 0.016%, light 3 hours after injection",only erythematous macules near each injection puncture site
same,reaction to ALA injection before light exposure,"skin; intradermal injection, 3-hour incubation",mild transient “bleb” papule
same,skin response,"skin; topical 20% ALA and light exposure, after 24 hours","non-uniform skin response, with much greater inflammation around hair follicles"
same,lowest injected ALA concentration inducing porphyrin accumulation,[1]; down to and including,0.0005%
same,"injected ALA concentration at which epithelial skin structures (hair follicles, sebaceous glands, epidermis) showed fluorescence",[1]; in vivo,≥ 0.25%
same,subcutaneous fat fluorescence,[1]; injected ALA 0.0005%,present
same,vessel fluorescence,[1]; injected ALA 0.50%,Some vessels also fluoresced
same,epidermal fluorescence,"[1]; injected ALA 1.0% and 0.5%, prior to light",Full thickness epidermal fluorescence
same,fluorescence of superficial and deep hair follicles,[1]; injected ALA 1% to 0.03%,mostly present
same,epidermal fluorescence,[1]; injected ALA below 0.06%,negative
same,stratum corneum fluorescence,[1]; injected ALA below 0.06%,positive fluorescence
same,localisation of porphyrin fluorescence,"[1]; injected ALA ≦0.002%, 2-4 mm deep",limited to the area where the drug was injected
same,eccrine gland porphyrin fluorescence,[1]; injected ALA ≧0.03%,strong porphyrin fluorescence
same,superficial fat fluorescence,"[1]; injected ALA, all concentrations tested, fading with dilution",strong fluorescence
same,lowest ALA concentration with sebaceous gland fluorescence,"[1]; injected, prior to light",0.50%
same,lowest ALA concentration with positive eccrine gland fluorescence,"[1]; injected, less intense but still positive",0.005%
same,ALA solution pH,[2]; 0.004 to 0.0005% ALA in normal saline,~7
same,ALA solution pH,[2]; 0.250 to 0.008% ALA in normal saline,~5
same,ALA solution pH,[2]; 0.500% ALA in normal saline,~3
same,ALA solution pH,[2]; 1.000% ALA in normal saline,~1
same,stability of aqueous solutions,[3],unstable over long periods
same,porphyrin accumulation by gross fluorescence,[4]; 2-4 mm deep injected ALA lower than 0.0005%,low but detectable level of porphyrin accumulation
same,lowest injected ALA concentration with positive fluorescence in photographs,"[4]; 3 hours after intradermal administration, solutions 1.0% to 0.0005%",0.004%
same,lowest injected ALA concentration with statistically significantly increased fluorescence vs uninjected control sites (pixel value analysis),[4]; 3 hours incubation,0.004%
same,fluorescence compared to control and light only sites,"[4]; ALA less than or equal to 0.002%, p≦2×10^−5",significant fluorescence
same,fluorescence immediately after red light PDT,"[4]; all sites, 635 nm",no fluorescence
same,porphyrin accumulation by gross fluorescence,[4]; injected ALA greater than 0.002%,dose-dependent porphyrin accumulation
same,fat septae damage,skin structures; 0.002% injected ALA-PDT,Massive fat septae necrosis
same,"damage to hair follicle, adnexal glands and fat",skin structures; 0.5% injected ALA-PDT,Non-selective destruction
same,epidermis changes,skin structures; [5],no relevant changes
same,superficial vessel findings,skin structures; [5],superficial vessel inflammation with blood stagnation
same,eccrine gland damage,"skin structures; all ALA concentrations, more so 1% to 0.06%",Massive eccrine gland necrosis
same,fat damage,skin structures; all injected ALA concentrations,observed with all concentrations
same,epidermis reaction,"skin structures; all samples, 24 hours after PDT",little or no reaction
same,vascular destruction in deep vessels of the fat septae,skin structures; injected ALA 0.0005% (most diluted),maximal vascular destruction
same,fat damage intensity,skin structures; injected ALA 0.0005-0.016%,more intense
same,fat effect at very low concentrations,"skin structures; injected ALA 0.016 to 0.0005% (≦0.016%), 2-4 mm deep, hydrochloride",localized fat necrosis without clinical evidence of inflammation; also recorded: targeted fat and deep vessels without clinical inflammation
same,superficial fat inflammation,skin structures; injected ALA 0.06%,mild inflammation
same,eccrine gland selectivity of damage,"skin structures; injected ALA 0.06%, hydrochloride",selective destruction of some eccrine glands; also recorded: Selective eccrine gland damage; also recorded: selectively targeted eccrine glands; also recorded: Selective reaction of eccrine glands
same,vascular findings in superficial and deep vessels,"skin structures; injected ALA 0.25-1.00%, 24 hours after PDT",extensive perivascular and vascular mixed inflammatory cell infiltrates
same,vascular PDT reaction,skin structures; injected ALA ≧0.25% with high fluence red light,potent vascular PDT reaction
same,apocrine gland damage,skin structures; injected ALA-PDT,signs of some preferential damage
same,perifollicular inflammation,skin structures; mainly injected ALA 1%-0.016%,mild perifollicular inflammation
